The structures appear in SMILES notation.

Usually IC50 stands for the concentration that inhibits the measured activity by half. Read a low IC50 as greater potency. For orientation: inhibition means the change of the read-out against control, counted positive when it falls.

Data set [1] can be described thus: Cytotoxicity against human HeLa cells assessed as cell viability at 20 uM after 24 hrs by resazurin based fluorescence assay relative to control. The note with it: read-out: Activity. Format: toxicity.
The test system of data set [2] is Plasmodium falciparum. The experiment in a line: Antimalarial activity against Plasmodium falciparum 3D7 infected in human erythrocytes after 48 hrs by lactate dehydrogenase assay. Format: functional, cell-based. Particulars: 3D7, 48 h.
The test system of data set [3] is Plasmodium falciparum. Briefly: Antimalarial activity against Plasmodium falciparum 3D7 infected in human erythrocytes assessed as cell viability at 20 uM after 48 hrs by lactate dehydrogenase assay. Format: functional.
Data set [4] has as its system Plasmodium falciparum. The experiment in a line: Inhibition of Plasmodium falciparum DXR at 20 uM using DOXP as substrate preincubated for 5 mins followed by substrate addition measured for 10 mins in presence of NADPH by spectrophotometric analysis.

For the molecule `CCOP(=O)(CCC(=O)N(Cc1ccccc1)c1cccc(O)c1)OCC`, in data set [1], the viability at 24 h, 20 µM came to 120%. This molecule also gave an IC50 in the data set with Plasmodium falciparum [2] of 15.8 to 15.9 µM. Also, in the data set with Plasmodium falciparum [3], the Activity is recorded as -8.05%.
Consider `CCOP(=O)(CC(=O)Nc1cccc([N+](=O)[O-])c1)OCC`, for which the viability at 24 h, 20 µM in data set [1] worked out at 83.1%. In addition, the Activity in the data set with Plasmodium falciparum [3] is 64.13%.
Regarding `CCOP(=O)(CC(=O)Nc1cccc(CO)c1)OCC`, the viability at 24 h, 20 µM in data set [1] came out at 123%. This molecule also showed an IC50 in the data set on Plasmodium falciparum [2] of 10.1 µM. For the same molecule, the Activity in the data set on Plasmodium falciparum [3] was -7.26%.
Take `CCOP(=O)(CCC(=O)Nc1cccc(O)c1)OCC`: the viability at 24 h, 20 µM in data set [1] stood at 119%. The Activity with Plasmodium falciparum [3] was determined as 54.54%.
With `O=C(CCP(=O)(O)O)N(Cc1ccccc1)c1cccc(O)c1`, the inhibition in the data set with Plasmodium falciparum [4] amounted to 0%.
Consider `CCOP(=O)(CCC(=O)N(Cc1ccccc1)c1cccc(CO)c1)OCC`, for which the viability at 24 h, 20 µM in data set [1] was found to be 110%. Also, the Activity in the data set with Plasmodium falciparum [3] is listed as 55.44%.
On to `C#CCNC(=O)CCP(=O)(OCC)OCC`, for which the viability at 24 h, 20 µM in data set [1] amounted to 92%. Also, inhibition with Plasmodium falciparum [2] was half-maximal at 20.1 µM (IC50). Besides, the Activity in the data set with Plasmodium falciparum [3] was -4.04%.
As for `CC(=O)N(O)CCCP(=O)(O)O`, the inhibition in the data set on Plasmodium falciparum [4] came out at 73.3%.
The same measure, in the same setting: the result for `C#CCNC(=O)CCP(=O)(O)O` reads 6.7%.
In the case of `CCOP(=O)(CCC(=O)N(Cc1ccccc1)c1cccc(Br)c1)OCC`, the viability at 24 h, 20 µM in data set [1] is 121%. The Activity in the data set with Plasmodium falciparum [3] is reported as 35.19%.
The corresponding values for `CCOP(=O)(CC(=O)Nc1cccc(Br)c1)OCC` are 102% and 50.91%.
As to `CCOP(=O)(CC(=O)Nc1ccccn1)OCC`, the viability at 24 h, 20 µM in data set [1] was 131%. Moreover, in the data set with Plasmodium falciparum [2], the IC50 stood at 23.1 µM. Moreover, the Activity with Plasmodium falciparum [3] is -19.39%.
Consider `C#CCNC(=O)CP(=O)(OCC)OCC`, for which the viability at 24 h, 20 µM in data set [1] came out at 104%. The Activity in the data set with Plasmodium falciparum [3] worked out at 47.96%.
As to `CCOP(=O)(CC(=O)Nc1cccc(O)c1)OCC`, the viability at 24 h, 20 µM in data set [1] was found to be 117%. In addition, the Activity in the data set with Plasmodium falciparum [3] was 52.42%.
`O=C(CCP(=O)(O)O)N(Cc1ccccc1)c1ccccn1`: in the data set with Plasmodium falciparum [4], the inhibition amounted to 0%.
With `CCOP(=O)(CCC(=O)N(Cc1ccccc1)c1cccc(OCc2ccccc2)c1)OCC`, the viability at 24 h, 20 µM in data set [1] was 108%. The same molecule returned a 50% inhibitory concentration (IC50) in the data set on Plasmodium falciparum [2] of 16.4 µM. For the same molecule, the Activity with Plasmodium falciparum [3] is given as 6.84%.
Turning to `CCOP(=O)(CCC(=O)Nc1cccc(OCc2ccccc2)c1)OCC`, in data set [1], the viability at 24 h, 20 µM stood at 105%. Further, in the data set on Plasmodium falciparum [3], the Activity came out at 51.13%.
As for `CCOP(=O)(CCC(=O)N(Cc1ccccc1)c1ccccn1)OCC`, the viability at 24 h, 20 µM in data set [1] is 113%. The concentration for half-maximal inhibition (IC50) in the data set with Plasmodium falciparum [2] was found to be 22.3 µM. For the same molecule, in the data set with Plasmodium falciparum [3], the Activity is -5.33%.
Regarding `CCOP(=O)(CC(=O)Nc1cccc(O[Si](C)(C)C(C)(C)C)c1)OCC`, the viability at 24 h, 20 µM in data set [1] is 85.7%. Moreover, the Activity in the data set with Plasmodium falciparum [3] is 61.87%.
The corresponding values for `CCOP(=O)(CCC(=O)N(Cc1ccccc1)c1cccc([N+](=O)[O-])c1)OCC` are 118% and 59.6%.

The values above are taken from ChEMBL document CHEMBL3862027, “Synthesis and antimalarial activity of N-benzylated (N-arylcarbamoyl)alkylphosphonic acid derivatives” (Bioorg Med Chem, 2016).
